Columns and labels:
Test in all cases: relative viability (nuclei count vs DMSO), 5 days (fraction); higher = more cells survive
[1] = compound: C[C@H]([C@@H](C(=O)N)NC(=O)[C@@H]1CSSC[C@@H](C(=O)N[C@H](C(=O)N[C@@H](C(=O)N[C@H](C(=O)N1)CCCCN)CC2=CNC3=CC=CC=C32)CC4=CC=C(C=C4)O)NC(=O)[C@@H](CC5=CC=CC=C5)N)O [CAP-232] + CC(=O)Nc1cccc(-n2c(=O)n(C3CC3)c(=O)c3c(Nc4ccc(I)cc4F)n(C)c(=O)c(C)c32)c1 [Trametinib] (partner 0.02 µM)
How it was run: (§1)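 Dosing by pin tool came one day after lung cancer cell lines were seeded in 1536-well plates, using either one drug or a fixed anchor-drug dose plus five library-drug doses (not always all listed) in √10 steps. After 5 days, nuclei were counted on 4× images. Relative viability is treated-well nuclei count divided by vehicle-well nuclei count, and values are medians of duplicate plates.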

[2] = compound: C[C@H]([C@@H](C(=O)N)NC(=O)[C@@H]1CSSC[C@@H](C(=O)N[C@H](C(=O)N[C@@H](C(=O)N[C@H](C(=O)N1)CCCCN)CC2=CNC3=CC=CC=C32)CC4=CC=C(C=C4)O)NC(=O)[C@@H](CC5=CC=CC=C5)N)O [CAP-232] + Cc1cc(Nc2cc(N3CCN(C)CC3)nc(Sc3ccc(NC(=O)C4CC4)cc3)n2)n[nH]1 [Tozasertib] (partner 0.1 µM)
How it was run: as §1

[3] = compound: C[C@H]([C@@H](C(=O)N)NC(=O)[C@@H]1CSSC[C@@H](C(=O)N[C@H](C(=O)N[C@@H](C(=O)N[C@H](C(=O)N1)CCCCN)CC2=CNC3=CC=CC=C32)CC4=CC=C(C=C4)O)NC(=O)[C@@H](CC5=CC=CC=C5)N)O [CAP-232] + O=C(c1cc(Cc2n[nH]c(=O)c3ccccc23)ccc1F)N1CCN(C(=O)C2CC2)CC1 [Olaparib] (partner 8 µM)
How it was run: as §1

[4] = compound: C[C@H]([C@@H](C(=O)N)NC(=O)[C@@H]1CSSC[C@@H](C(=O)N[C@H](C(=O)N[C@@H](C(=O)N[C@H](C(=O)N1)CCCCN)CC2=CNC3=CC=CC=C32)CC4=CC=C(C=C4)O)NC(=O)[C@@H](CC5=CC=CC=C5)N)O [CAP-232] + CC1(C)CCC(c2ccc(Cl)cc2)=C(CN2CCN(c3ccc(C(=O)NS(=O)(=O)c4ccc(N[C@H](CCN5CCOCC5)CSc5ccccc5)c(S(=O)(=O)C(F)(F)F)c4)cc3)CC2)C1 [Navitoclax] (partner 0.5 µM)
How it was run: as §1

[5] = compound: C[C@H]([C@@H](C(=O)N)NC(=O)[C@@H]1CSSC[C@@H](C(=O)N[C@H](C(=O)N[C@@H](C(=O)N[C@H](C(=O)N1)CCCCN)CC2=CNC3=CC=CC=C32)CC4=CC=C(C=C4)O)NC(=O)[C@@H](CC5=CC=CC=C5)N)O [CAP-232] + COc1cccc2cc(-c3nc([C@H]4CC[C@H](C(=O)O)CC4)n4ncnc(N)c34)[nH]c12 [OSI-027] (partner 0.5 µM)
How it was run: as §1

Cell Line | relative viability ([1]; first compound 0.4 µM) | relative viability ([1]; first compound 1.265 µM) | relative viability ([1]; first compound 4 µM) | relative viability ([1]; first compound 12.65 µM) | relative viability ([2]; first compound 0.4 µM) | relative viability ([2]; first compound 1.265 µM) | relative viability ([2]; first compound 4 µM) | relative viability ([2]; first compound 12.65 µM) | relative viability ([3]; first compound 0.4 µM) | relative viability ([3]; first compound 1.265 µM) | relative viability ([3]; first compound 4 µM) | relative viability ([3]; first compound 12.65 µM) | relative viability ([4]; first compound 0.4 µM) | relative viability ([4]; first compound 1.265 µM) | relative viability ([4]; first compound 4 µM) | relative viability ([4]; first compound 12.65 µM) | relative viability ([5]; first compound 0.4 µM) | relative viability ([5]; first compound 1.265 µM) | relative viability ([5]; first compound 4 µM) | relative viability ([5]; first compound 12.65 µM)
NCI-H1993 | 0.443 | 0.491 | 0.589 | 0.429 | 0.621 | 0.569 | 0.664 | 0.582 | 1.32 | 1.14 | 0.933 | 1.08 | 0.961 | 0.864 | 1.15 | 0.907 | 0.604 | 0.539 | 0.544 | 0.492
NCI-H2009 | 0.237 | 0.251 | 0.247 | 0.301 | 0.757 | 0.713 | 0.823 | 0.684 | 0.799 | 0.684 | 0.74 | 0.52 | 1.15 | 1.14 | 1.13 | 1.04 | 0.667 | 0.585 | 0.719 | 0.358
NCI-H2023 | 0.656 | 0.555 | 0.48 | 0.205 | 0.348 | 0.332 | 0.379 | 0.139 | 0.485 | 0.498 | 0.497 | 0.326 | 1.15 | 1 | 1.06 | 0.579 | 0.429 | 0.359 | 0.447 | 0.124
NCI-H2085 | 0.514 | 0.586 | 0.532 | 0.569 | 0.94 | 0.816 | 0.827 | 0.844 | 0.825 | 0.764 | 0.743 | 0.771 | 1.18 | 1.06 | 1.15 | 1.15 | 0.786 | 0.726 | 0.934 | 0.594
NCI-H2087 | 0.188 | 0.228 | 0.201 | 0.205 | 0.193 | 0.212 | 0.221 | 0.311 | 0.646 | 0.669 | 0.697 | 0.312 | 1.19 | 1.16 | 1.02 | 0.616 | 0.444 | 0.489 | 0.596 | 0.41
NCI-H2126 | 0.622 | 0.523 | 0.561 | 0.602 | 0.801 | 0.799 | 0.885 | 0.822 | 0.899 | 0.866 | 0.992 | 0.914 | 0.864 | 0.804 | 0.843 | 0.851 | 0.743 | 0.76 | 0.846 | 0.648
NCI-H2170 | 0.977 | 0.918 | 1.05 | 1.08 | 0.852 | 0.667 | 0.615 | 0.73 | 0.622 | 0.588 | 0.738 | 0.636 | 0.68 | 0.573 | 0.578 | 0.603 | 0.658 | 0.737 | 0.777 | 0.669
NCI-H2228 | 0.473 | 0.523 | 0.715 | 0.414 | 0.257 | 0.28 | 0.195 | 0.263 | 0.766 | 0.73 | 0.92 | 0.361 | 0.84 | 0.96 | 0.473 | 1.01 | 0.712 | 0.494 | 0.665 | 0.556
NCI-H2347 | 0.34 | 0.255 | 0.256 | 0.241 | 0.564 | 0.545 | 0.517 | 0.521 | 0.651 | 0.528 | 0.606 | 0.598 | 0.834 | 0.951 | 0.718 | 0.72 | 0.29 | 0.489 | 0.352 | 0.614
NCI-H2405 | 0.416 | 0.673 | 0.558 | 0.447 | 0.728 | 0.751 | 0.761 | 0.683 | 0.836 | 0.957 | 0.831 | 0.53 | 0.821 | 1.07 | 0.795 | 0.562 | 0.626 | 0.648 | 0.693 | 0.518
NCI-H3122 | 0.222 | 0.194 | 0.293 | 0.24 | 0.344 | 0.36 | 0.292 | 0.252 | 0.664 | 0.656 | 0.847 | 0.546 | 1.01 | 0.988 | 1.02 | 1.03 | 0.629 | 1.01 | 1.07 | 0.474
PC-3 [JPC-3] | 0.703 | 0.7 | 0.69 | 0.7 | 1.05 | 0.949 | 0.924 | 0.91 | 1.16 | 1.21 | 1.2 | 1.08 | 0.827 | 0.801 | 0.725 | 0.698 | 0.853 | 0.794 | 0.796 | 0.73
PC-14 | 0.843 | 0.891 | 0.739 | 0.37 | 0.644 | 0.575 | 0.542 | 0.565 | 0.265 | 0.264 | 0.213 | 0.239 | 0.93 | 1.02 | 1.16 | 0.848 | 0.8 | 0.848 | 1.08 | 0.397
RERF-LC-KJ | 0.927 | 0.778 | 0.784 | 0.566 | 0.562 | 0.444 | 0.433 | 0.351 | 0.98 | 0.893 | 1.03 | 0.721 | 1.05 | 1.08 | 1.02 | 0.703 | 0.588 | 0.533 | 0.486 | 0.231
SK-LU-1 | 0.45 | 0.477 | 0.717 | 0.492 | 0.309 | 0.314 | 0.289 | 0.203 | 0.388 | 0.44 | 0.412 | 0.408 | 0.911 | 0.998 | 1.12 | 0.863 | 0.329 | 0.342 | 0.308 | 0.332
SK-MES-1 | 0.543 | 0.549 | 0.541 | 0.524 | 0.903 | 0.893 | 0.905 | 0.774 | 0.747 | 0.718 | 0.762 | 0.607 | 1.28 | 1.17 | 1.45 | 1.1 | 0.696 | 0.557 | 0.583 | 0.264
SW 1573 | 0.503 | 0.54 | 0.643 | 0.191 | 0.185 | 0.207 | 0.189 | 0.126 | 0.395 | 0.416 | 0.469 | 0.356 | 0.912 | 1.1 | 0.988 | 0.635 | 0.612 | 0.785 | 0.678 | 0.111
UMC-11 | 0.65 | 0.546 | 0.719 | 0.456 | 0.202 | 0.191 | 0.214 | 0.17 | 0.358 | 0.339 | 0.374 | 0.248 | 0.317 | 0.307 | 0.295 | 0.297 | 0.474 | 0.484 | 0.517 | 0.39
